ChEMBL document CHEMBL4007427, “Inhibition of the Aldehyde Dehydrogenase 1/2 Family by Psoralen and Coumarin Derivatives” (J Med Chem, 2017)

Columns and labels:
[1] = target: T1, Aldehyde dehydrogenase, mitochondrial (Homo sapiens, UniProt P05091)
T1 sequence (P05091 whole entry): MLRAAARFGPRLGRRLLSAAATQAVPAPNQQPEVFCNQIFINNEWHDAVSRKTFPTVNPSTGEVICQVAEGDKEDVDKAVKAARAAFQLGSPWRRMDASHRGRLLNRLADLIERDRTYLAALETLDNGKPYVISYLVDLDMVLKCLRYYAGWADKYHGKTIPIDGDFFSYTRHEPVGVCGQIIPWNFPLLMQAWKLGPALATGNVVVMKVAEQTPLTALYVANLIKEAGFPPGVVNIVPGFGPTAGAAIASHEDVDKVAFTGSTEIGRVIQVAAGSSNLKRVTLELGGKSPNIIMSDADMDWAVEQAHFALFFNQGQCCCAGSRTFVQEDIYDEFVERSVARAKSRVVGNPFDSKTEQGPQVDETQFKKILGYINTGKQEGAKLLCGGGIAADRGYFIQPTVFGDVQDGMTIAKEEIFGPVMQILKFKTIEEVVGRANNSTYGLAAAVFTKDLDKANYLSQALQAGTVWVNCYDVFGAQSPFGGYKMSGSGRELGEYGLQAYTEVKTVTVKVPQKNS
Description: (§3) Inhibition of full length recombinant human ALDH2 expressed in Escherichia coli assessed as reduction in dehydrogenase activity by measuring NAD(P)H level preincubated for 2 mins followed by addition of propionaldehyde as substrate in presence of NAD+ by spectrophotometric method

[2] = target: T2, Aldehyde dehydrogenase X, mitochondrial (Homo sapiens, UniProt P30837)
T2 sequence (P30837 whole entry): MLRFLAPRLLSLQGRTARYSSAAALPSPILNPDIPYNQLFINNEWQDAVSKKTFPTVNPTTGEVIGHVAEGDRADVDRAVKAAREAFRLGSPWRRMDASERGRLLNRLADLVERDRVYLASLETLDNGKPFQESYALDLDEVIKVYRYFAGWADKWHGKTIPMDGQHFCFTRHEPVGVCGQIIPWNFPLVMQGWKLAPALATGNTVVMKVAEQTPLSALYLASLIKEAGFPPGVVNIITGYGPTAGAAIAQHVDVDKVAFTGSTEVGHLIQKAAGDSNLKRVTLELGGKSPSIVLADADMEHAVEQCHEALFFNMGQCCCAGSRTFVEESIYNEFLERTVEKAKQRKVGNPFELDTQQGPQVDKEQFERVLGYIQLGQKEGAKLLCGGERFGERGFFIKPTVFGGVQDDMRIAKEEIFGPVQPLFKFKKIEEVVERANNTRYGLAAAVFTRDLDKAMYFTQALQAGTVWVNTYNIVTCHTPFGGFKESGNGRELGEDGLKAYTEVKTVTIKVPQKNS
Description: (§4) Inhibition of full length recombinant human ALDH1B1 expressed in Escherichia coli TunerDE3 assessed as reduction in dehydrogenase activity by measuring NAD(P)H level preincubated for 2 mins followed by addition of propionaldehyde as substrate in presence of NAD+ by spectrophotometric method

[3] = target: T3, Aldehyde dehydrogenase, dimeric NADP-preferring (Homo sapiens, UniProt P30838); experiment: (§1) Inhibition of full length recombinant human ALDH3A1 expressed in Escherichia coli BL21(DE3) assessed as reduction in dehydrogenase activity by measuring NAD(P)H level preincubated for 2 mins followed by addition of benzaldehyde as substrate in presence of NADP+ by spectrophotometric method
T3 sequence (P30838 whole entry): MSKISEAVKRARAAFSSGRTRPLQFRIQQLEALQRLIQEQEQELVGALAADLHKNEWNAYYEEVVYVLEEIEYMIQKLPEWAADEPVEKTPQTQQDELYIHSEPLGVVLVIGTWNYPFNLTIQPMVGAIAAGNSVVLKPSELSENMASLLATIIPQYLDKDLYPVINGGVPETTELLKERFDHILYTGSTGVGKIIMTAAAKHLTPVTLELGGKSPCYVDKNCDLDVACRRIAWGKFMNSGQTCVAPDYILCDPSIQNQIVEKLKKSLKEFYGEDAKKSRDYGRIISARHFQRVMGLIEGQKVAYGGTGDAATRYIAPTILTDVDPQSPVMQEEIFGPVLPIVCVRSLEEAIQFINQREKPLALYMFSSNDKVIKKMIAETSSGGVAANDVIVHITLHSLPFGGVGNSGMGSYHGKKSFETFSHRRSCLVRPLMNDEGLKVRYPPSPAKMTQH

[4] = target: T4, Retinaldehyde dehydrogenase 3 (Homo sapiens, UniProt P47895)
T4 sequence (P47895 whole entry): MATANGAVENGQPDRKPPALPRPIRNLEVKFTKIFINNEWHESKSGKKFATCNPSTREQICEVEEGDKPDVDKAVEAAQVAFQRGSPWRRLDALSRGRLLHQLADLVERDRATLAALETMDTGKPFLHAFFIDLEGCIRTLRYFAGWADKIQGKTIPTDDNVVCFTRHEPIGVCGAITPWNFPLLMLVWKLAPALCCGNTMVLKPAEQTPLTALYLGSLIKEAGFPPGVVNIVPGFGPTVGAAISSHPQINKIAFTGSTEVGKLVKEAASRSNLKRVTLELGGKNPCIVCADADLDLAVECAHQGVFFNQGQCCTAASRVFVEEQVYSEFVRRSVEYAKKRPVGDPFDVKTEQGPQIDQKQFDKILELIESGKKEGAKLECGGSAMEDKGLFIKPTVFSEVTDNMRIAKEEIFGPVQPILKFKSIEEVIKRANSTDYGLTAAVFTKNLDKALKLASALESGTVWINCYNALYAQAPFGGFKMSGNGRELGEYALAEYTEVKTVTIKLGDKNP
Description: (§5) Inhibition of full length recombinant human ALDH1A3 expressed in Escherichia coli BL21(DE3) assessed as reduction in dehydrogenase activity by measuring NAD(P)H level preincubated for 2 mins followed by addition of propionaldehyde as substrate in presence of NAD+ by spectrophotometric method

[5] = Lipophilicity, log P of the compound; format: physicochemical; conditions: octanol/water
Retinal dehydrogenase 2 = target: T5, Retinal dehydrogenase 2 (Homo sapiens, UniProt O94788)
T5 sequence (O94788 whole entry): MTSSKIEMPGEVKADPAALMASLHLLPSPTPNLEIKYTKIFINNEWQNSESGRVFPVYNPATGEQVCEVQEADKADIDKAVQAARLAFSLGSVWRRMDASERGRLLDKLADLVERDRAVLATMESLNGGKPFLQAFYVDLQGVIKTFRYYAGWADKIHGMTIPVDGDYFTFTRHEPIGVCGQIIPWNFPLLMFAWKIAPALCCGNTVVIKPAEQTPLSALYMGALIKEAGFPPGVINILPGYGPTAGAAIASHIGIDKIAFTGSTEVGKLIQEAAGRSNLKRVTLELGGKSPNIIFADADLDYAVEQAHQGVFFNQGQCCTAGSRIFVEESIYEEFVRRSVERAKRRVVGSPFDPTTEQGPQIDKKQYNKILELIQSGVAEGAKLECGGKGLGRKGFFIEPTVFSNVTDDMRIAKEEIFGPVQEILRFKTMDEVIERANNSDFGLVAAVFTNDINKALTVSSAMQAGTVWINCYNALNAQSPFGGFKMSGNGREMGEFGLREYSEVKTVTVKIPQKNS
Description: Inhibition of full length recombinant human ALDH1A2 expressed in Escherichia coli BL21(DE3) assessed as reduction in dehydrogenase activity by measuring NAD(P)H level preincubated for 2 mins followed by addition of propionaldehyde as substrate in presence of NAD+ by spectrophotometric method

[6] = target: T6, Aldehyde dehydrogenase 1A1 (Homo sapiens, UniProt P00352)
T6 sequence (P00352 whole entry): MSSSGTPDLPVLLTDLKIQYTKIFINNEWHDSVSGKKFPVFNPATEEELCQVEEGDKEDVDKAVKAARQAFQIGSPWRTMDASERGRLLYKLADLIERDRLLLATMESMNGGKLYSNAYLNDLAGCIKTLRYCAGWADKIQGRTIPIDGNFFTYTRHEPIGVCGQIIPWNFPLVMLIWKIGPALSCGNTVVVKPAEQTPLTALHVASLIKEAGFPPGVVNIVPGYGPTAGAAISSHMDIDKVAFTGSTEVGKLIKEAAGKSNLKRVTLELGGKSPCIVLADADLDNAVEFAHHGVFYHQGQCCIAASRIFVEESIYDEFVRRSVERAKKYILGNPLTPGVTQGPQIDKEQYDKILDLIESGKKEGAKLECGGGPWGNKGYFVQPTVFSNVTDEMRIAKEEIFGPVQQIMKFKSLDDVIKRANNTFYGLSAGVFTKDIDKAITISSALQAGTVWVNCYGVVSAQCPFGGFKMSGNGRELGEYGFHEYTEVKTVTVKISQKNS
Description: (§6) Inhibition of full length recombinant human ALDH1A1 expressed in Escherichia coli BL21(DE3) assessed as reduction in dehydrogenase activity by measuring NAD(P)H level preincubated for 2 mins followed by addition of propionaldehyde as substrate in presence of NAD+ by spectrophotometric method

[7] = target: T7, Aldehyde dehydrogenase, mitochondrial (Homo sapiens) (UniProt P05091); experiment: Inhibition of full length recombinant human ALDH2 expressed in Escherichia coli assessed as remaining dehydrogenase activity by measuring NAD(P)H level at 10 uM preincubated for 2 mins followed by addition of propionaldehyde as substrate in presence of NAD+ by spectrophotometric method
T7 sequence (whole entry): T1 sequence (P05091 whole entry)

[8] = target: T8, Aldehyde dehydrogenase, dimeric NADP-preferring (Homo sapiens) (UniProt P30838); experiment: Inhibition of full length recombinant human ALDH3A1 expressed in Escherichia coli BL21(DE3) assessed as remaining dehydrogenase activity by measuring NAD(P)H level at 10 uM preincubated for 2 mins followed by addition of propionaldehyde as substrate in presence of NAD+ by spectrophotometric method
T8 sequence (whole entry): T3 sequence (P30838 whole entry)

[9] = target: T9, Aldehyde dehydrogenase 1A1 (Homo sapiens) (UniProt P00352); experiment: (§2) Inhibition of full length recombinant human ALDH1A1 expressed in Escherichia coli BL21(DE3) assessed as remaining dehydrogenase activity by measuring NAD(P)H level at 10 uM preincubated for 2 mins followed by addition of propionaldehyde as substrate in presence of NAD+ by spectrophotometric method
T9 sequence (whole entry): T6 sequence (P00352 whole entry)

[10] = target: T1, Aldehyde dehydrogenase, mitochondrial; remark: listed apart in the source
Description: as §3

[11] = target: T4, Retinaldehyde dehydrogenase 3; remark: listed apart in the source
Description: as §5

[12] = target: T9, Aldehyde dehydrogenase 1A1 (Homo sapiens); experiment: as §2, with “reduction in” for “remaining”, “level” for “level at 10 uM”, “method relative to control” for “method”
[13] = target: T1, Aldehyde dehydrogenase, mitochondrial; experiment: Mixed-type non-competitive inhibition of full length recombinant human ALDH2 expressed in Escherichia coli assessed as reduction in dehydrogenase activity using propionaldehyde as substrate in presence of varying levels NAD+ by Lineweaver-Burk plot analysis
[14] = target: T6, Aldehyde dehydrogenase 1A1; remark: listed apart in the source
Description: Non-competitive inhibition of full length recombinant human ALDH1A1 expressed in Escherichia coli BL21(DE3) assessed as reduction in dehydrogenase activity by measuring NAD(P)H level using varying levels propionaldehyde in presence of NAD+ by Lineweaver-Burk plot analysis

[15] = target: T6, Aldehyde dehydrogenase 1A1; remark: listed apart in the source
Description: as §6

[16] = target: T8, Aldehyde dehydrogenase, dimeric NADP-preferring (Homo sapiens); experiment: as §1, with “method relative to control” for “method”
[17] = target: T10, Cytosolic 10-formyltetrahydrofolate dehydrogenase (Rattus norvegicus, UniProt P28037); experiment: Inhibition of rat ALDH1L1 assessed as reduction in dehydrogenase activity by measuring NAD(P)H level preincubated for 2 mins followed by addition of propionaldehyde as substrate in presence of NAD+ by spectrophotometric method
T10 sequence (P28037 whole entry): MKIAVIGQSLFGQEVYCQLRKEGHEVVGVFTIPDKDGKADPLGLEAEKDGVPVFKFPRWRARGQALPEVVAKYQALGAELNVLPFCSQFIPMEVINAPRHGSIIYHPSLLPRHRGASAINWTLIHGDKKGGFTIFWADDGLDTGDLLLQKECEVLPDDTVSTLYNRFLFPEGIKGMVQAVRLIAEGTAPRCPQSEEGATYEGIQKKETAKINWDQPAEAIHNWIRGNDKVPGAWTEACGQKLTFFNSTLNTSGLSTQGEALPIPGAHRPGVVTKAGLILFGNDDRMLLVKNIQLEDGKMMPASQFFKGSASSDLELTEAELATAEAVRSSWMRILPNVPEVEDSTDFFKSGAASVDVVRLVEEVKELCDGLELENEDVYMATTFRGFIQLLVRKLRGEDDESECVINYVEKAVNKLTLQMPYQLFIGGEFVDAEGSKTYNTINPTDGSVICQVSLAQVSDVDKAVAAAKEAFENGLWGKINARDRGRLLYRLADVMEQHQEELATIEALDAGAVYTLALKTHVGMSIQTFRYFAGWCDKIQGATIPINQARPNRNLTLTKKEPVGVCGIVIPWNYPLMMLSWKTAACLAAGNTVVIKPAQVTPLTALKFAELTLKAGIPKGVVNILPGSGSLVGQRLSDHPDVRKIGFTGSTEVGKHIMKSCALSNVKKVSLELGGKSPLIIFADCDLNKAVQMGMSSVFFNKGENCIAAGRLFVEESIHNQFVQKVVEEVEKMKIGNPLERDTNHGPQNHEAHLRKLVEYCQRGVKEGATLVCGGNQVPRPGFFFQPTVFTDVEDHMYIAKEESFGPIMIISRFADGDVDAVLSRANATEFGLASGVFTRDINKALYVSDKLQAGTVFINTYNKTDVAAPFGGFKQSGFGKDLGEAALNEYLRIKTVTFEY

[18] = target: T2, Aldehyde dehydrogenase X, mitochondrial; remark: listed apart in the source
Description: as §4

[19] = target: T6, Aldehyde dehydrogenase 1A1; remark: listed apart in the source

Cc1c(Cc2ccccc2)c(=O)oc2cc(OS(C)(=O)=O)ccc12
IC50 [1]: Not Active | IC50 [2]: 13 µM | IC50 [3]: Not Active | IC50 [4]: 10 µM | logP [5]: 3.44 | IC50 (Retinal dehydrogenase 2): 11 µM | IC50 [6]: 2.8 µM | Activity [7]: 99.7% | Activity [8]: 86.9% | Activity [9]: 24.6%

Cc1oc2cc3oc(=O)c4c(c3cc2c1C)CCCC4
IC50 [2]: 0.095 µM | IC50 [3]: Not Active | IC50 [10]: 0.067 µM | IC50 [11]: Not Active | logP [5]: 4.27 | IC50 (Retinal dehydrogenase 2): 0.065 µM | IC50 [6]: 0.13 µM | Activity [7]: 16.3% | Activity [8]: 94.1% | Activity [9]: 56.3% | Imax [12]: 50 to 60%

Cc1cc(=O)oc2cc(OCC#N)ccc12
Ki [13]: 5.6 µM | logP [5]: 1.22 | Activity [7]: 41.3% | Activity [8]: 20.4% | Activity [9]: 35.7% | Ki [14]: 6.9 µM

Cc1cc(=O)oc2cc3c(cc12)CCC(=O)O3
IC50 [15]: Not Active | IC50 ([3]; read-out: IC50): 5.4 µM | IC50 [10]: 0.47 µM | logP [5]: 2.11 | Imax [16]: 50 to 60% | Activity [7]: 25.5% | Activity [8]: 53.6% | Activity [9]: 65.2%

O=c1c(-c2ccc(O)cc2)coc2cc(O[C@@H]3O[C@H](CO)[C@@H](O)[C@H](O)[C@H]3O)ccc12 [DAIDZIN]
IC50 [2]: 5.1 µM | IC50 [3]: Not Active | IC50 [4]: > 200 µM | IC50 [17]: Not Active | IC50 (Retinal dehydrogenase 2): 4.5 µM | IC50 [6]: > 200 µM

CCN(CC)c1ccc2c(C)cc(=O)oc2c1
IC50 [1]: Not Active | IC50 [18]: Not Active | IC50 [3]: Not Active | IC50 [11]: Not Active | logP [5]: 3.63 | IC50 (Retinal dehydrogenase 2): > 10 µM | IC50 [6]: 0.76 µM | Ki [19]: 0.87 µM | Activity [7]: 71.7% | Activity [8]: 109% | Activity [9]: 14.3% | Ki [14]: 1.2 µM
